From patent US20250127755A1, “PHARMACOLOGICAL DEPLETION OF HEME FOR THE TREATMENT OF MYELODYSPLASTIC SYNDROME” (THE SCRIPPS RESEARCH INSTITUTE, priority 2021, published 2025)

Experiments:
MDS-L cells [1] = assay: MDS-L differentiation assay (GlyA positivity, 384-well FACS-based); details: for Maximal MDS-LGlyA fold induction: human; for EC50: read-out: MDS-L GlyA induction EC50; for inducing differentiation to more terminal blood lineages (GlyA immunopositivity): 384-well FACS-based assay
Description: MDS-L differentiation assay. Given a limited number of patient samples and the low yield from each biopsy, it is not tractable to conduct high-throughput screens with primary cells.
To establish a screening assay, we selected known differentiation inducers of acute myeloid leukemia cells including retinoic acid (ATRA), Brequinar, and phorbol 12-myristate 13-acetate (PMA).
MDS-L were cultured in RPMI (17-105-CV, Corning) without phenol red and supplemented with 2 mM glutamine and 10% FBS. Cells first expanded in IL-3 until 70% confluence then pre-conditioned for 14 days with IL-3 (200-03, PeproTech), GCSF (300-23, PeproTech), and EPO (287-TC, R&D Systems) to promote erythroid and myeloid differentiation. A density of 10000 cells per well were used in phenotypic assays. MDSL cells were spun and treatment media was replaced with media containing APC Anti-CD235a (GlyA) (551336. BD Biosciences) (1.25 μL per 50 μL test) and incubated for 1 hour at 4° C. Cells were washed then counter stained with SYTOX-Green 1 μM per 100 μL prior to flow cytometry, analysis. Dose response and pharmacological assays were analyzed using a ZE5 Cell Analyzer (BioRad) equipped with Everest software. Single, live, cells were analyzed for GlyA expression using FlowJo v10.7.2 software.

MDS-L cells [2] = assay: Induction of apoptosis; type: cell-based; details: below 20 μM
MDS-L cells [3] = assay: Loss of CD71; type: cell-based
MDS-L cells [4] = assay: CFU assays of MDS-L cells; type: cell-based
MDS-L cells [5] = assay: Heme levels of MDS-L cells; type: cell-based; details: over relevant time periods, FIG. 4B
Description: FIG. 4A-FIG. 4C. Heme depletion induces terminal differentiation of MDS-L cells. A: Relative induction of GlyA positive MDS-L cells in response to treatment for 96 hours with the indicated concentrations of NMPP. B: Heme levels of MDS-L cells treated with the indicated compounds. C: Relative induction of GlyA positive cells after 96-hour treatment with artemisone and hemin.
An additional consequence of this mechanism is the alkylation of artemisinin to heme, resulting in its functional inactivation. Because we found no other reactive oxygen species (ROS)-inducers or alkylators as active hits from the screen, we reasoned that heme depletion is a way in which artemisinins promote differentiation of this cellular population.

## C[C@H]1[C@H](OC(=O)CCC(=O)O)O[C@@H]2O[C@@]3(C)CC[C@H]4[C@H](C)CC[C@@H]1[C@@]24OO3 (stereo in doubt) [Artesunate]
MDS-L cells [1]
  Maximal MDS-LGlyA fold induction: 7.51 fold
  EC50: 850 nM

## C[C@@H]1CC[C@H]2[C@@H](C)C(=O)O[C@@H]3O[C@@]4(C)CC[C@@H]1[C@]32O4 [2-deoxy-artemisinin]
MDS-L cells [1]
  activity in differentiation assays: inactive

## CC1=C(/C=C/C(C)=C/C=C/C(C)=C/C(=O)O)C(C)(C)CCC1 [ATRA, retinoic acid]
MDS-L cells [1]; MDS-L cells, FIG. 2
  cytotoxicity as readout by live dead cell gating: minimal cytotoxicity

## CCO[C@H]1O[C@@H]2O[C@@]3(C)CC[C@H]4[C@H](C)CC[C@@H]([C@H]1C)[C@@]24OO3 [Arteether]
MDS-L cells [2]
  induction in apoptosis: no significant induction
MDS-L cells [3]
  loss of CD71: efficaciously promoted
MDS-L cells [4]
  number of BFU-E, CFU-GM and CFU-GEMM type colonies: decreasing
  terminal differentiation of MDS-L cells to CFU-Es: efficaciously induced
MDS-L cells [1]
  Maximal MDS-LGlyA fold induction: 3.82 fold
  EC50: 580 nM

## c1cc([C@H]2CC[C@]3(CC2)OOC2(O3)[C@@H]3C[C@H]4C[C@H](C[C@@H]2C4)C3)ccc1OCCN1CCOCC1 (stereo partly drawn) [Artefenomel (OZ-439), Artefenomel]
MDS-L cells [1]
  Maximal MDS-LGlyA fold induction: 3.71 fold
  EC50: 5650 nM

## C[C@H]1[C@@H](OCc2ccc(C(=O)O)cc2)O[C@@H]2O[C@@]3(C)CC[C@H]4[C@H](C)CC[C@@H]1[C@@]24OO3 [Artelinic acid (artelinate), Artelinic acid]
MDS-L cells [1]
  Maximal MDS-LGlyA fold induction: 7.26 fold
  EC50: 30 nM

## C[C@H]1[C@H](N2CCS(=O)(=O)CC2)O[C@@H]2O[C@@]3(C)CC[C@H]4[C@H](C)CC[C@@H]1[C@@]24OO3 [Artemisone]
MDS-L cells [2]
  induction in apoptosis: no significant induction
MDS-L cells [3]
  loss of CD71: efficaciously promoted
MDS-L cells [4]
  number of BFU-E, CFU-GM and CFU-GEMM type colonies: decreasing
  terminal differentiation of MDS-L cells to CFU-Es: efficaciously induced
MDS-L cells [1]; 96-hour treatment with artemisone and hemin, FIG. 4C
  potential to induce differentiation of MDS-L cells on addition of exogenous heme (hemin): suppressed
MDS-L cells [1]
  Maximal MDS-LGlyA fold induction: 6.84 fold
  EC50: 150 nM
MDS-L cells [5]
  levels of labile heme in MDS-L cells: efficiently reduced

## CC(C)(N)CNC(=O)C[C@H]1CC[C@]2(CC1)OO[C@]1(O2)[C@@H]2C[C@H]3C[C@@H](C2)C[C@@H]1C3 [Arterolane (OZ-277), Arterolane]
MDS-L cells [1]
  Maximal MDS-LGlyA fold induction: 7.02 fold
  EC50: 1740 nM

## Cc1c(-c2ccc(-c3ccccc3F)cc2)nc2ccc(F)cc2c1C(=O)O [Brequinar]
MDS-L cells [1]; MDS-L cells
  inducing differentiation to more terminal blood lineages (GlyA immunopositivity): efficacious

## C[C@H]1[C@@H](O)O[C@@H]2O[C@@]3(C)CC[C@H]4[C@H](C)CC[C@@H]1[C@@]24OO3 [Dihydroarte misin, dihydroartemisinin]
MDS-L cells [1]
  Maximal MDS-LGlyA fold induction: 7.09 fold
  EC50: 610 nM

## CCCCCCCCCCCCCC(=O)O[C@@H]1[C@@H](C)[C@@]2(O)[C@@H](C=C(CO)C[C@]3(O)C(=O)C(C)=C[C@@H]23)[C@@H]2C(C)(C)[C@]12OC(C)=O [PMA, phorbol 12-myristate 13-acetate]
MDS-L cells [1]; MDS-L cells
  inducing differentiation to more terminal blood lineages (GlyA immunopositivity): efficacious

## N-methylprotoporphyrin [NMPP]
MDS-L cells [1]; treatment for 96 hours, FIG. 4A
  GlyA positivity in MDS-L cells: increase
MDS-L cells [5]
  levels of labile heme in MDS-L cells: efficiently reduced
